Key:
human DCs = conditions: cited from earlier work
DCs [1] = assay: DC tolerogenic index ILT3/CD86 (MFI ratio); format: cell-based, human; conditions: Example 13, FIG. 13(D); compared to control DCs
Excerpt: The optimal tolDCs should express both low levels of co-stimulatory molecules and high levels of tolerogenic molecules. Thus, to take into account the combined effect of this, the ratio between the expression levels of representative tolerogenic and co-stimulatory molecules could be depicted as a proxy for the tolerogenic capacity of a certain subset of tolDCs. FIGS. 4 (A) and (B) show such tolerogenic index, defined as the ILT3/CD86 expression (MFI) ratio, on DCs cultured under various conditions in the absence (FIG. 4 (A); grey bars) or presence of LPS (FIG. 4 (B); black bars).

DCs [2] = assay: DC expression of CD103 (flow cytometry); format: cell-based, human; conditions: Example 13, FIG. 13(E); compared to control DCs
Procedure: CD14^+ monocytes were cultured at 1.25×10^6 cells/mi for 7 days in GMP DC Medium (CellGenix, Freiburg, Germany) containing HEPES, GlutaMAX and Penicillin-Streptomycin solution (Thermo Fisher, Waltham, MA) in the presence of granulocyte-macrophage colony-stimulating factor (GM-CSF; 100 ng/ml; PeproTech, London, UK) and interleukin-4 (IL-4; 100 ng/ml; PeproTech). Cells were replenished on day 3 with fresh medium and cytokines. […]
Cell surface expression was investigated using the following fluorescently labeled antibodies: CD11c (B-Ly6), CD83 (HB15e), CD86 (BU63), ILT3 (ZM4.1), CD141 (M80), GARP (7611), CD103 (B-Ly7), MERTK (590H11G1E3), BTLA (J168-540), CD49b (P1E6-05), HLA-G (87G), LAP (FNLAP), from BD Biosciences (Franklin Lakes, NJ), BioLegend (San Diego, CA) and Thermo Fisher. DCs were washed and resuspended in staining buffer (phosphate-buffered saline supplemented with 0.5% BSA and 2 mM EDTA) and incubated with antibody for 20 min followed by washing before acquisition on a MACSQuant 10 flow cytometer (Miltenyi Biotec) and analyzed using FlowJo software (BD Biosciences). […]

CD4^+ T cells [3] = assay: Capacity of DCs to induce T cell proliferation in allogeneic MLR (3H-thymidine); format: cell-based, human
Procedure: (§1) CD14^+ monocytes were cultured at 1.25×10^6 cells/mi for 7 days in GMP DC Medium (CellGenix, Freiburg, Germany) containing HEPES, GlutaMAX and Penicillin-Streptomycin solution (Thermo Fisher, Waltham, MA) in the presence of granulocyte-macrophage colony-stimulating factor (GM-CSF; 100 ng/ml; PeproTech, London, UK) and interleukin-4 (IL-4; 100 ng/ml; PeproTech). Cells were replenished on day 3 with fresh medium and cytokines. Control DCs were differentiated in GM-CSF and IL-4 without addition of any further compounds and optionally further were treated with lipopolysaccharide (LPS; 0.5 ug/ml; Sigma-Aldrich, Saint Louise, MO) or a pro-inflammatory cytokine cocktail consisting of TNFalpha (10 ng/ml; PeproTech), IL-1 beta (10 ng/ml; PeproTech), and prostaglandin E2 (PGE2; 1 ug/ml; Sigma) on day 6 to generate stimulated immunogenic DCs. Tolerogenic DCs (tolDCs) were generated by treatment with various tolerogenic compounds: AhR agonist “C1” (C1; 20 nM; IMA-06201; Immunahr A B, Lund, Sweden) on days 0 and 3, TGFbeta1 (10 or 20 ng/ml; PeproTech) on day 3, and retinoic acid (2 uM; Sigma-Aldrich) on day 6. Control tolDC for comparison were established by treatment with Dexamethasone (Dex; 100 nM; Sigma-Aldrich) and Vitamin D3 (VitD3; 100 nM, StemCell Technologies) on day 3. Phenotypic stability of TolDCs was investigated by addition of LPS (0.5 ug/ml) or a pro-inflammatory cytokine cocktail consisting of TNFalpha (10 ng/ml), IL-1beta (10 ng/ml), PGE2 (1 ug/ml), and for Example 24 also IL-6 (10 ng/ml), for the last 24 hours of culture. On day 7, DCs were harvested and washed extensively before phenotyping and functional assays were performed.
In order to analyse the T cell stimulatory capacity of the generated DC populations, allogeneic MLRs were performed. DC/T cell cultures were carried out in complete medium: RPMI-1640 (Thermo Fisher) containing fetal bovine serum (FBS; 10%; Thermo Fisher), HEPES, GlutaMAX and Penicillin-Streptomycin solution. T cells (10^5 cells/well) were cultured with DCs at a T cell: DC ratio of 10:1 for 5-7 days. Proliferation was determined by incorporation of ^3H-thymidine for the last 18 hours of culture. For determination of CD4^+CD49b^+LAG3^+ Tr1 cells, cells were phenotyped as described below. For determination of CD25^hiFoxp3^+ Treg induction, the T cells from the MLR cultures were rested for additionally 7 days in complete medium containing IL-2 (20 IU/ml; PeproTech) and then subjected to phenotyping as described below.
Control DCs were differentiated from CD14^+ monocytes by culturing in GM-CSF and IL-4 for 7 days. Control DCs were either unstimulated or stimulated with LPS which was added on day 6 to generate immunogenic control DCs. […] TolDCs for comparison were established by treatment with Dex at 100 nM and VitD3 at 100 nM on day 3. On day 6, some of the DCs were treated with LPS (FIG. 5 (A); black bars) or a pro-inflammatory cytokine cocktail consisting of TNFalpha, IL-1beta and PGE2 (FIG. 5 (B); black bars) to test for phenotypical stability under various conditions. All cells were harvested on day 7 and cocultures with CD4^+ T cells were setup in an MLR setting at a T cell:DC ratio of 10:1. At the end of the 7-day cultures, proliferation of T cells was determined by ^3H-thymidine incorporation.
Various compounds were tested for their capacity to induce a tolerogenic phenotype in DCs. […] AhR agonist C1 (AhR ag) at 10 nM on days 0 and 3, TGFbeta at 10 ng/ml on day 3, and RA at 2 uM on day 6. […]

CD4^+ T cells [4] = assay: Capacity of DCs to induce CD25^hiFoxp3^+ Tregs in time-extended MLR; format: cell-based, human; conditions: Example 13, FIG. 13(H); compared to control DCs
Procedure: as §1
In order to analyse the T cell stimulatory capacity of the generated DC populations, allogeneic MLRs were performed. DC/T cell cultures were carried out in complete medium: RPMI-1640 (Thermo Fisher) containing fetal bovine serum (FBS; 10%; Thermo Fisher), HEPES, GlutaMAX and Penicillin-Streptomycin solution. […] Proliferation was determined by incorporation of ^3H-thymidine for the last 18 hours of culture. […]

[5] = during DC differentiation and maturation

Row | Molecule | differentiation of naïve T cells into Treg cells by treated DCs (human DCs; Jurado-Manzano et al, 2017) | expression of the enzyme IDO (human DCs; [5]) | production of pro-inflammatory cytokines (human DCs; [5]) | tolerogenic ratio (ILT3/CD86) (DCs [1]) | CD103 expression (MFI) on DCs (DCs [2]) | induction of T cell proliferation (CPM) (CD4^+ T cells [3]; Example 13, FIG. 13(G), compared to control DCs) | effect on the tolerogenic effect of RA (CD4^+ T cells [3]; Example 13, summary) | induction of Tregs (CD4^+CD25^+Foxp3^+) (CD4^+ T cells [4])
1 | O=Cc1c2c(cc3c1=Nc1ccccc1-3)=Nc1ccccc1-2 [FICZ, 6-formylindolo[3,2-b]carbazole] | able to induce the differentiation | increased expression of the enzyme IDO | reduced production of pro-inflammatory cytokines such as IL-6 and TNF-alpha |  |  |  |  | 
2 | TGFbeta: transforming growth factor beta; TGFbeta1 (PeproTech) used in the examples |  |  |  | slightly higher | slightly higher | less T cell proliferation | strengthens the tolerogenic effect of RA | more Tregs

— patent publication US12582706B2, “Tolerogenic antigen presenting cells” (Cell4Cure AB, priority 2019, dated 2026)
